Converted amounts (≈) assume the structure as drawn. The source made the active and inactive calls.

For the first assay, the target named is T1, 3-oxoacyl-[acyl-carrier-protein] synthase 1 (Mycobacterium tuberculosis) (UniProt P9WQD9).
T1 sequence (whole entry): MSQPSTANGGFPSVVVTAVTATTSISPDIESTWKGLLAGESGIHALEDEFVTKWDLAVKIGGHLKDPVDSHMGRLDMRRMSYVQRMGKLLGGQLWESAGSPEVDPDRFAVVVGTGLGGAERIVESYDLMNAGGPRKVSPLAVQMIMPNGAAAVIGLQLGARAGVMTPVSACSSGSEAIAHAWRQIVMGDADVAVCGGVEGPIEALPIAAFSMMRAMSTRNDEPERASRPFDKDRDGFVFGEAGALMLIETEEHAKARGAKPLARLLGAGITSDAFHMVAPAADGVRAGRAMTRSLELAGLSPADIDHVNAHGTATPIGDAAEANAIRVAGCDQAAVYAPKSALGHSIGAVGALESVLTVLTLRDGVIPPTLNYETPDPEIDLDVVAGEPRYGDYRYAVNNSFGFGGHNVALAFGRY
The assay can be described thus: Inhibitory activity against KasA from Mycobacterium tuberculosis H37Rv at 100 uM.
Regarding `CC1=C(O)SC(C)(CC(C)C)C1=O` (configuration not stated), the inhibition result was “inactive”.

Turning to `C/C=C/CC1(C)SC(O)=C(C)C1=O` (configuration not stated), the inhibition result was “inactive”.

Take `CCCCCC1(C)SC(O)=C(C)C1=O` (configuration not stated): the inhibition result was “inactive”.

`CC1=C(O)SC(C)(C(C)C)C1=O` (configuration not stated): the inhibition result was “inactive”.

`CCCCCCC1(C)SC(O)=C(C)C1=O` (configuration not stated): the inhibition result is “inactive”.

As to `CC1=C(O)C(C)(C2CCCC2)SC1=O` (configuration not stated), the inhibition result is “inactive”.

`C=C(C)CC1(C)SC(O)=C(C)C1=O` (configuration not stated): the inhibition entry was “inactive”.

As for `CCC(CC)CC1(C)SC(O)=C(C)C1=O` (configuration not stated), the inhibition result was “inactive”.

On to `CC1=C(O)C(C)(Cc2ccccc2)SC1=O` (configuration not stated), for which the inhibition entry is “inactive”.

Take `C=CC(C)CC1(C)SC(O)=C(C)C1=O` (configuration not stated): the inhibition result is “inactive”.

Turning to `CC1=C(O)SC(C)C1=O` (configuration not stated) [THIOLACTONE], the inhibition entry was “inactive”.

The next assay relates to Escherichia coli. The experiment in a line: Inhibitory activity against Escherichia coli ANSI. It counts as functional.
As usually defined, the MIC is the smallest concentration in the dilution series that meets the test's criterion for growth inhibition. The low end stands for a more susceptible organism, the high end for a less susceptible organism. Take `CC1=C(O)SC(C)(CC(C)C)C1=O` (configuration not stated): the MIC is above 1000 µM.

`C/C=C/CC1(C)SC(O)=C(C)C1=O` (configuration not stated) gave an MIC above 1000 µM.

Consider `CCCCCC1(C)SC(O)=C(C)C1=O` (configuration not stated), for which the MIC is above 1000 µM.

Consider `CC1=C(O)SC(C)(C(C)C)C1=O` (configuration not stated), for which the MIC is above 1000 µM.

For `CCCCCCC1(C)SC(O)=C(C)C1=O` (configuration not stated), the MIC is above 1000 µM.

In the case of `CC1=C(O)C(C)(C2CCCC2)SC1=O` (configuration not stated), the MIC was above 1000 µM.

Turning to `C=C(C)CC1(C)SC(O)=C(C)C1=O` (configuration not stated), the MIC is above 1000 µM.

`CCC(CC)CC1(C)SC(O)=C(C)C1=O` (configuration not stated) yielded an MIC above 1000 µM.

Take `CC1=C(O)C(C)(Cc2ccccc2)SC1=O` (configuration not stated): the MIC is above 1000 µM.

`C=CC(C)CC1(C)SC(O)=C(C)C1=O` (configuration not stated) came in with an MIC above 1000 µM.

`CC1=C(O)SC(C)C1=O` (configuration not stated) [THIOLACTONE]: the MIC is above 1000 µM.

The next assay concerns Mycobacterium tuberculosis. The experiment in a line: Inhibitory activity against Mycobacterium tuberculosis H37Rv. It counts as functional.
`CC1=C(O)SC(C)(CC(C)C)C1=O` (configuration not stated): the MIC was above 1000 µM.

`C/C=C/CC1(C)SC(O)=C(C)C1=O` (configuration not stated) had an MIC above 1000 µM.

`CCCCCC1(C)SC(O)=C(C)C1=O` (configuration not stated) gave an MIC of 500 µM (≈ 107 µg/mL).

As for `CC1=C(O)SC(C)(C(C)C)C1=O` (configuration not stated), the MIC is above 1000 µM.

In turn, `CCCCCCC1(C)SC(O)=C(C)C1=O` (configuration not stated) came in with an MIC of 1000 µM (≈ 228 µg/mL).

For `CC1=C(O)C(C)(C2CCCC2)SC1=O` (configuration not stated), the minimal inhibitory concentration (MIC) was above 1000 µM.

As for `C=C(C)CC1(C)SC(O)=C(C)C1=O` (configuration not stated), the MIC is above 1000 µM.

`CCC(CC)CC1(C)SC(O)=C(C)C1=O` (configuration not stated): it took 1000 µM (≈ 228 µg/mL) to inhibit growth (MIC).

`CC1=C(O)C(C)(Cc2ccccc2)SC1=O` (configuration not stated) showed an MIC above 1000 µM.

The compound `C=CC(C)CC1(C)SC(O)=C(C)C1=O` (configuration not stated) came in with an MIC above 1000 µM.

`CC1=C(O)SC(C)C1=O` (configuration not stated) [THIOLACTONE]: the MIC is above 1000 µM.

The target in another assay is T2, 3-oxoacyl-[acyl-carrier-protein] synthase 2 (Mycobacterium tuberculosis) (UniProt P9WQD7).
T2 sequence (whole entry): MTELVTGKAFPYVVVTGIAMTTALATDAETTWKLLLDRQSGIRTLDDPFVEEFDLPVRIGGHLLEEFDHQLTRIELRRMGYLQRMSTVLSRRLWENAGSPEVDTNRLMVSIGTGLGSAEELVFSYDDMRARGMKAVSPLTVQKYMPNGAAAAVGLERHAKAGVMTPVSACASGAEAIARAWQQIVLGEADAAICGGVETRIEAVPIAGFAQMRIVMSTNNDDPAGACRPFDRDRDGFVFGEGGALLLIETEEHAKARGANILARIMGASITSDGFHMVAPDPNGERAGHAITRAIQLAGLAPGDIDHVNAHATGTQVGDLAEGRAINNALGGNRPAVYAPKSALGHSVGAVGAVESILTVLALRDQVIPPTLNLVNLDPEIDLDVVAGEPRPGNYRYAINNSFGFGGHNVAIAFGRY
The experiment in a line: Inhibitory activity against KasB from Mycobacterium tuberculosis H37Rv at 100 uM.
Consider `CC1=C(O)SC(C)(CC(C)C)C1=O` (configuration not stated), for which the inhibition result is “inactive”.

On to `C/C=C/CC1(C)SC(O)=C(C)C1=O` (configuration not stated), for which the inhibition result was “inactive”.

As for `CCCCCC1(C)SC(O)=C(C)C1=O` (configuration not stated), the inhibition result is “inactive”.

Turning to `CC1=C(O)SC(C)(C(C)C)C1=O` (configuration not stated), the inhibition result was “inactive”.

On to `CCCCCCC1(C)SC(O)=C(C)C1=O` (configuration not stated), for which the inhibition entry was “inactive”.

Consider `CC1=C(O)C(C)(C2CCCC2)SC1=O` (configuration not stated), for which the inhibition entry was “inactive”.

Consider `C=C(C)CC1(C)SC(O)=C(C)C1=O` (configuration not stated), for which the inhibition result was “inactive”.

For the compound `CCC(CC)CC1(C)SC(O)=C(C)C1=O` (configuration not stated), the inhibition entry was “inactive”.

For `CC1=C(O)C(C)(Cc2ccccc2)SC1=O` (configuration not stated), the inhibition result was “inactive”.

As for `C=CC(C)CC1(C)SC(O)=C(C)C1=O` (configuration not stated), the inhibition entry was “inactive”.

Turning to `CC1=C(O)SC(C)C1=O` (configuration not stated) [THIOLACTONE], the inhibition entry was “inactive”.

Another assay addresses T3, Mycobacterial beta-ketoacyl-[acyl-carrier-protein] synthase III (Mycobacterium tuberculosis) (UniProt P9WNG3).
T3 sequence (whole entry): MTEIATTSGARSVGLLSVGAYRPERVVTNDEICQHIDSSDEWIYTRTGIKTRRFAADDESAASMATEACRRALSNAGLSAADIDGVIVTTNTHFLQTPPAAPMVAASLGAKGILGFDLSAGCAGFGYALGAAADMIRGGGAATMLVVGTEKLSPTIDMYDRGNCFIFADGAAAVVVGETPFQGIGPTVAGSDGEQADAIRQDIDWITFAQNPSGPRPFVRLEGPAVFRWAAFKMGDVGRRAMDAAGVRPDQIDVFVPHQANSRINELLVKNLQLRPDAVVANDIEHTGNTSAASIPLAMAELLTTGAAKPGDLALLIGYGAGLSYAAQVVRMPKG
The assay can be described thus: Inhibitory activity against FabH from Mycobacterium tuberculosis H37Rv at 100 uM.
On to `CC1=C(O)SC(C)(CC(C)C)C1=O` (configuration not stated), for which the inhibition result was “inactive”.

`C/C=C/CC1(C)SC(O)=C(C)C1=O` (configuration not stated): the inhibition entry was “inactive”.

Take `CCCCCC1(C)SC(O)=C(C)C1=O` (configuration not stated): the inhibition entry was “inactive”.

With `CC1=C(O)SC(C)(C(C)C)C1=O` (configuration not stated), the inhibition result was “inactive”.

As to `CCCCCCC1(C)SC(O)=C(C)C1=O` (configuration not stated), the inhibition entry is “inactive”.

As to `CC1=C(O)C(C)(C2CCCC2)SC1=O` (configuration not stated), the inhibition entry was “inactive”.

Consider `C=C(C)CC1(C)SC(O)=C(C)C1=O` (configuration not stated), for which the inhibition entry is “inactive”.

Regarding `CCC(CC)CC1(C)SC(O)=C(C)C1=O` (configuration not stated), the inhibition result was “inactive”.

For the compound `CC1=C(O)C(C)(Cc2ccccc2)SC1=O` (configuration not stated), the inhibition entry was “inactive”.

With `C=CC(C)CC1(C)SC(O)=C(C)C1=O` (configuration not stated), the inhibition entry was “inactive”.

In the case of `CC1=C(O)SC(C)C1=O` (configuration not stated) [THIOLACTONE], the inhibition entry is “inactive”.

The target of a further assay is T4, 3-oxoacyl-[acyl-carrier-protein] synthase 3 (Escherichia coli) (UniProt C3TDZ2).
T4 sequence (whole entry): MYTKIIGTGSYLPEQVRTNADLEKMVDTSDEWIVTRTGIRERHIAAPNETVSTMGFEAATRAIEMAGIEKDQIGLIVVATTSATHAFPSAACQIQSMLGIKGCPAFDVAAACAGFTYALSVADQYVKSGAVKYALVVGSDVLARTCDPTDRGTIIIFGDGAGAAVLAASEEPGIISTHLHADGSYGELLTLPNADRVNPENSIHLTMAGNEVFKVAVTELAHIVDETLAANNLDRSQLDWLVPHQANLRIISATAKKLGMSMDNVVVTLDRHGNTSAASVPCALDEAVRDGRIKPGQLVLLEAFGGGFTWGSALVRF
The experiment in a line: Inhibitory activity against FabH from Escherichia coli ANSI at 100 uM.
Turning to `CC1=C(O)SC(C)(CC(C)C)C1=O` (configuration not stated), the inhibition entry is “inactive”.

Turning to `C/C=C/CC1(C)SC(O)=C(C)C1=O` (configuration not stated), the inhibition result was “inactive”.

Take `CCCCCC1(C)SC(O)=C(C)C1=O` (configuration not stated): the inhibition entry is “inactive”.

On to `CC1=C(O)SC(C)(C(C)C)C1=O` (configuration not stated), for which the inhibition entry was “inactive”.

`CCCCCCC1(C)SC(O)=C(C)C1=O` (configuration not stated): the inhibition result was “inactive”.

For `CC1=C(O)C(C)(C2CCCC2)SC1=O` (configuration not stated), the inhibition result is “inactive”.

Regarding `C=C(C)CC1(C)SC(O)=C(C)C1=O` (configuration not stated), the inhibition entry is “inactive”.

For the compound `CCC(CC)CC1(C)SC(O)=C(C)C1=O` (configuration not stated), the inhibition entry was “inactive”.

On to `CC1=C(O)C(C)(Cc2ccccc2)SC1=O` (configuration not stated), for which the inhibition entry was “inactive”.

Turning to `C=CC(C)CC1(C)SC(O)=C(C)C1=O` (configuration not stated), the inhibition result is “inactive”.

For `CC1=C(O)SC(C)C1=O` (configuration not stated) [THIOLACTONE], the inhibition entry is “inactive”.

A further assay deals with T5, 3-oxoacyl-[acyl-carrier-protein] synthase 1 (Escherichia coli K-12) (UniProt P0A953).
T5 sequence (whole entry): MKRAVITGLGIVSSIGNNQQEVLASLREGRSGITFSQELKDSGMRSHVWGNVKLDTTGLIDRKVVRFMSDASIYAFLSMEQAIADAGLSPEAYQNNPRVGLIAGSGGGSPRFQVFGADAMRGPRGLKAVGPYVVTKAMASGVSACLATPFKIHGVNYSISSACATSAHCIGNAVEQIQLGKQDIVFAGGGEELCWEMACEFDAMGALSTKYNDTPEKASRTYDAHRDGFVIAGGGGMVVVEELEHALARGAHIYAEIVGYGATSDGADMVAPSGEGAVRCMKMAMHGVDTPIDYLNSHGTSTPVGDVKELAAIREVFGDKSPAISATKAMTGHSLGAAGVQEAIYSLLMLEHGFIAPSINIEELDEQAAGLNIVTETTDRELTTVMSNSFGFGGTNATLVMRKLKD
The experiment in a line: Inhibitory activity against FabB from Escherichia coli ANSI at 100 uM.
For `CC1=C(O)SC(C)(CC(C)C)C1=O` (configuration not stated), the inhibition result is “inactive”.

`C/C=C/CC1(C)SC(O)=C(C)C1=O` (configuration not stated): the inhibition entry was “inactive”.

For `CCCCCC1(C)SC(O)=C(C)C1=O` (configuration not stated), the inhibition result is “inactive”.

Take `CC1=C(O)SC(C)(C(C)C)C1=O` (configuration not stated): the inhibition entry was “inactive”.

For the compound `CCCCCCC1(C)SC(O)=C(C)C1=O` (configuration not stated), the inhibition result is “inactive”.

Turning to `CC1=C(O)C(C)(C2CCCC2)SC1=O` (configuration not stated), the inhibition result is “inactive”.

As to `C=C(C)CC1(C)SC(O)=C(C)C1=O` (configuration not stated), the inhibition entry is “inactive”.

Turning to `CCC(CC)CC1(C)SC(O)=C(C)C1=O` (configuration not stated), the inhibition entry is “inactive”.

With `CC1=C(O)C(C)(Cc2ccccc2)SC1=O` (configuration not stated), the inhibition result was “inactive”.

Consider `C=CC(C)CC1(C)SC(O)=C(C)C1=O` (configuration not stated), for which the inhibition result was “inactive”.

As for `CC1=C(O)SC(C)C1=O` (configuration not stated) [THIOLACTONE], the inhibition entry was “inactive”.
